Experimental findings from patent publication US20130012527A1, “PREQ1 RIBOSWITCHES AND METHODS AND COMPOSITIONS FOR USE OF AND WITH PREQ1 RIBOSWITCHES” (YALE UNIVERSITY, priority 2007, published 2013) are described below.

In assay [1] the test system is queC RNA construct containing the analogous C34U mutation. Nature of the assay: In-line probing of a queC RNA construct with the analogous C34U mutation. It is filed as binding. The note with it: concentrations as high as 1 mM. An excerpt: (§1) In-line probing analysis. […] .
The test system of the next assay is 106 queC RNA. Nature of the assay: Equilibrium dialysis, competition with 3H-guanine. It is filed as binding, B. subtilis. The note with it: 100 nM 3H-guanine, 20 μM RNA, unlabeled compound at a concentration exceeding that of the RNA. An excerpt: To provide additional support for a specific physical interaction between preQ1 and the queC RNA motif, competitive binding experiments were done using an equilibrium dialysis apparatus containing two chambers separated by a permeable membrane with a molecular weight cut-off of 5000 Daltons (FIG. 4d). Because guanine is recognized by the queC motif with nanomolar affinity (FIG. 4c), we first added ^3H-guanine and a molar excess of 106 queC RNA individually to the respective chambers. […].
Samples containing either 100 nM ^3H-guanine or 20 μM 106 queC RNA, each prepared in the same buffer solution used for in-line probing, were added in 30 μL volumes to opposite chambers of a DispoEquilibrium Dialyzer (ED-1, Harvard Bioscience). Following equilibration at 25° C. for 10-15 h, aliquots of 5 μL were withdrawn and quantitated with a liquid scintillation counter. For competitive binding experiments, 3 μL of buffer containing 1 mM unlabeled test compound was subsequently delivered to the RNA-containing chamber, while the same volume of buffer was added to the opposite chamber. After another equilibration period, 5 μL aliquots were again removed to assess the distribution of ^3H-guanine.
In general terms: Equilibrium dialysis compares concentrations on both sides of a semipermeable membrane.

The target in assay [2] is 52 queC RNA (B. subtilis queC element). Nature of the assay: In-line probing analysis of 52 queC RNA. It is filed as binding. The note with it: in-line probing over a range of ligand concentrations, read-out: Kd (apparent).
Description: RNA construct 52 queC (FIG. 4a) was used to examine the degree of ligand selectivity of the B. subtilis queC element. Affinities for various purine compounds were determined by subjecting 5′ ^32P-labeled 52 queC to in-line probing analyses using a range of ligand concentrations, followed by the quantitative analysis of the levels of ligand-dependent structure modulation.
A more detailed understanding of the molecular contacts involved in ligand recognition by 52 queC was obtained by determining the apparent Kd values for a series of purine analogs (FIG. 4c).
For assay [3], the system named is M1 RNA (80 queC, cytidine 34 replaced with uridine). The experiment in a line: In-line probing analysis of 80 queC mutant M1. It is filed as binding, B. subtilis. The note with it: for structure modulation: 200 μM.
Another assay concerns wild-type 80 queC RNA. Nature of the assay: In-line probing analysis of wild-type 80 queC RNA. The class given is binding, B. subtilis. The note with it: for structure modulation: wild-type 80 queC, 200 μM.
From the text: This possibility was examined by comparing the ligand binding characteristics of a wild-type queC construct (80 queC) with those of two mutant RNAs in which absolutely conserved cytidine residues were individually replaced with uridines (FIG. 6a). 2,6-diaminopurine was included in the panel of test compounds since it was previously established that the 2-amino group was critical for ligand recognition by the preQ1 aptamer (FIG. 4c). It was therefore anticipated that compounds lacking this moiety, such as adenine or 7-aminomethyl-7-deazaadenine, might not bind detectably, despite their potential for base pairing with a uridyl discriminator residue.
as §1

pKd: −log10 of the molar value.

`NCC1C=Nc2ncnc(N)c21` (stereo not shown) [7-aminomethyl-7-deazaadenine]: the “modulation of RNA structure” value in assay [1] is reported as “fail to modulate the structure”.

Take `Nc1nc2c(c(=O)[nH]1)CC=N2` [7-deazaguanine]: the “competition with 3H-guanine sequestration in the RNA chamber” value (“competition” below) in the assay on 106 queC RNA is reported as “competitively reversed”.

For the compound `N#CC1C=Nc2nc(N)[nH]c(=O)c21` (stereo not shown) [preQ0, 7-cyano-7-deazaguanine], in assay [2], the pKd (usually the Kd on a negative log10 scale, so that one unit is a factor of ten) is around 7.00.

In the case of `Nc1ncnc2nc[nH]c12` [adenine], the “competition” value in the assay with 106 queC RNA is “did not serve as a competitor”. The figures for the structure modulation entry (in assay [3] (M1 (C34U)); in the assay with wild-type 80 queC RNA) were “failure of adenine to induce any conformational response” and “does not result in structure modulation”, respectively. Further, the “binding to M1 RNA” value in assay [3] (M1 (C34U), in words) was “absence of adenine binding”.

As to `Nc1nc(N)c2[nH]cnc2n1` [2,6-diaminopurine], the “relative loss in binding affinity” value in assay [3] (C34U mutant with 2,6-diaminopurine versus wild-type queC RNA with guanine) is listed as “more than 600 fold”. The structure modulation entry is “key changes are observed” in assay [3] (M1 (C34U)) and “Structural changes in this construct are also induced” in the assay with wild-type 80 queC RNA. The pKd in assay [3] (M1 (C34U), data not shown) was below 3.52; at wild-type 80 queC RNA (80 queC) it was below 3.52. Besides, the “lowest concentration at which alterations in structure are detected” value with wild-type 80 queC RNA (80 queC) came out at 10 µM.

On to `Nc1nc2nc[nH]c2c(=O)[nH]1` [guanine], for which the “competition” value with 106 queC RNA is reported as “competitively reversed”. Also, the pKd in assay [2] was around 6.30. Moreover, the structure modulation entry with wild-type 80 queC RNA is reported as “structure modulation occurs”.
